Measured values: patent publication US7901893B2, “NPC1L1 (NPC3) and methods of identifying ligands thereof” (Merck Sharp & Dohme Corp., priority 2004, dated 2011)

How the values were obtained:
[1] = test system: membrane preparations from cells expressing NPC1L1; assay: Preliminary binding studies with HEK-293 membrane preparations
Description: Transient expression of NPC1L1. Plasmid pCR3.1 expressing rat NPC1L1 (Genbank AY437867) or human NPC1L1 (Genbank AY437865) were prepared using standard molecular biology protocols. HEK-293 cells (ATCC) were seeded at 10×10^6 cells per T-225 flask (Corning) in DMEM containing 10% fetal calf serum, 4.5 g/L D-glucose and L-glutamine, 18 hours prior to transfection. They were transiently transfected with 25 μg of DNA using Fugene transfection reagent (Roche Biochemical) at a ratio of 6:1 Fugene:DNA. Following transfection, the cells were incubated at 37° C. and 5% CO2 for 48 hours, and then harvested using PBS based cell dissociation buffer (Gibco), pelleted at 500×g, snap frozen on dry ice, and stored at −80° C.
Membrane preparation from HEK-293 cells. Membranes were prepared by resuspending the frozen cell pellets in ten volumes of 20 mM HEPES/Tris buffer at pH 7.40 containing 8% sucrose, and sonicating the suspensions with a probe sonicator on ice until most of the cells were lysed. […]
Cell lysates from HEK-293 cells expressing NPC1L1 (Lanes 1 and 3 of Panel 1 FIG. 13) and wild-type cells (Lanes 2 and 4 of Panel 1 FIG. 13) were analyzed by gel electrophoresis and Western blot with an anti-NPC1L1 antibody A1801. […]

cholesterol absorption = details: mouse; cited from earlier work
[2] = test system: CHO background (no transfection); assay: Effect of ezetimibe on cholesterol uptake, CHO background; format: cell-based, chinese hamster; details: EZ (10 μM), CHO Control
Description: The effect of ezetimibe on the ability of CHO cells stably transfected with mouse or rat NPC1L1 or mouse SR-B1 to take up ^3H-labeled cholesterol was evaluated in pulse-chase experiments. One cDNA clone of mouse NPC1L1 (C7) and three clones of rat NPC1L1 (C7, C17 and C21) were evaluated. The ability of CHO cells stably transfected with mouse SR-B1, mouse NPC1L1 and rat NPC1L1 to take up labeled cholesterol, in the absence of ezetimibe, was also evaluated in the pulse-chase experiments. Data generated in these experiments are set forth, below, in Tables 4 and 5. Additionally, the quantity of total cholesterol taken up by transfected and untransfected CHO cells in the presence of four different unlabeled cholesterol concentrations was also evaluated.
Starve. The maintenance media (F12 HAMS, 1% Pen/Strep, 10% FCS) was removed and the cells were rinsed with serum-free HAMS media. The serum-free media was then replaced with 1 mL “starve” media (F12 HAMS, Pen/Strep, 5% lipoprotein deficient serum (LPDS). The cells were then starved overnight.
Pre-Incubation/pre-dose. Media was removed from all plates and replaced with fresh starve media and preincubated for 30 minutes. Half of the wells received media containing ezetimibe (stock soln in EtOH; final conc.=10 μM).
^3H-Cholesterol Pulse. The following was added directly to each well: • 0.5 μCi ^3H-cholesterol (˜1.1×10^6 dpm/well) in 50 μl of a mixed bile salt micelle • 4.8 mM sodium taurocholate (2.581 mg/mL) • 0.6 mM sodium oleate (0.183 mg/mL) • 0.25 mM cholesterol (0.1 mg/mL) • Dispersed in “starve” media by ultrasonic vibration • Final media cholesterol concentration=5 μg/mL
Labeled cholesterol pulse time points were 4, 12, 24 minutes and 4 hours. Triplicate wells were prepared for each treatment.
Wash. At designated times, media was aspirated and cells were washed once with Hobbs Buffer A (50 mM Tris, 0.9% NaCl, 0.2% bovine serum albumin (BSA), pH 7.4) and once with Hobbs Buffer B (50 mM Tris, 0.9% NaCl, pH 7.4 (no BSA)) at 37° C.
A. 4, 12, 24 minute time points: Cells were digested overnight with 0.2N NaOH, 2 mL/well, room temperature. One 1.5 mL aliquot was removed from each well, neutralized & counted for radioactivity by scintillation counting.
B. 4 hour time point: The digested cells were analyzed by thin-layer chromatography to determine the content of cholesterol ester in the cells.
Extracts were spotted onto TLC plates and run for 30 minutes in 2 ml hexane:isopropanol (3:2) mobile phase for 30 minutes, followed by a second run in 1 ml hexane:isopropanol (3:2) mobile phase for 15 minutes.
C. Protein determination of cell extracts. Plates containing a sample of the cell extracts were placed on orbital shaker at 120 rpm for indicated times and then extracts are pooled into 12×75 tubes. Plates were dried and NaOH (2 ml/well) added. The protein content of the samples were then determined. Two additional 50 μl aliquots from all wells were assayed for total protein by the Pierce micro BCA method. The quantity of labeled cholesterol observed in the cells was normalized to the quantity of protein in the cells.

SMILES | binding to membrane preparations from cells expressing NPC1L1 [1] | binding to membranes from mock transfected cells [1] | potency (ED50) in vivo (cholesterol absorption) | Cholesteryl Ester, dpm ± sem ([2]; 4 Hour Pulse) | Cholesteryl Ester, dpm/mg protein ± sem ([2]; 4 Hour Pulse) | Free Cholesterol, dpm ± sem ([2]; 4 Hour Pulse) | Free Cholesterol, dpm/mg protein ± sem ([2]; 4 Hour Pulse) | Total Cholesterol, dpm ± sem ([2]; 4 Min Pulse) | Total Cholesterol, dpm/mg protein ± sem ([2]; 4 Min Pulse) | Total Cholesterol, dpm ± sem ([2]; 12 Min Pulse) | Total Cholesterol, dpm/mg protein ± sem ([2]; 12 Min Pulse) | Total Cholesterol, dpm ± sem ([2]; 24 Min Pulse) | Total Cholesterol, dpm/mg protein ± sem ([2]; 24 Min Pulse)
O=C(O)[C@H]1O[C@@H](Oc2ccc([C@@H]3[C@@H](CC[C@H](O)c4ccc(F)cc4)C(=O)N3c3ccc(F)cc3)cc2)[C@H](O)[C@@H](O)[C@@H]1O [Compound 1, Ezetimibe glucuronide] | specific binding | no specific binding |  |  |  |  |  |  |  |  |  |  | 
O=C1[C@H](CC[C@H](O)c2ccc(F)cc2)[C@@H](c2ccc(O)cc2)N1c1ccc(F)cc1 [ezetimibe] |  |  | 0.5 mpk | 208 ± 9 dpm | 1902 ± 87 dpm/mg protein | 56792 ± 568 dpm | 519607 ± 16203 dpm/mg protein | 3222 ± 26 dpm | 31881 ± 483 dpm/mg protein | 4532 ± 165 dpm | 43391 ± 1197 dpm/mg protein | 6678 ± 215 dpm | 61764 ± 2131 dpm/mg protein
